Results from patent US9504676B2, “Molecules inhibiting a metabolic pathway involving the Syk protein tyrosine kinase and method for identifying said molecules” (CENTRE NATIONAL DE LA RECHERCHE SCIENTIFIQUE, priority 2008, dated 2016).

Experiments:
[1] = tested on: Spleen B lymphocyte cells; assay: In vitro B lymphocyte proliferation induced by anti-IgM; assay type: cell-based, BALB/c mice
Experimental: • 1) Chemical products and antibodies. A chemical bank of 3000 molecules (a varied subset) was acquired from ChemBridge, Inc. (San Diego, Calif.). Stocks of solutions of small molecules were prepared at a rate of 10 mM in DMSO (dimethylsulphoxide), except for C-13 (methyl 2-{5-[(3-benzyl-4-oxo-2-thioxo-1,3-thiazolidin-5-ylidene)methyl]-2-furyl}benzoate, ChemBridge ID No. 6197026) prepared in DMF (dimethylformamide). Unless specified otherwise, all the reagents were supplied by Sigma. Dinitrophenyl (DNP) hapten was acquired from Calbiochem. Sepharose GammaBind G and all the secondary antibodies were supplied by GE Health Amersham Biosciences. […] The binding of G4G11 with Syk was assessed by adding the 9E10 monoclonal antibody conjugated with HRP detecting the amino acid sequence EQKLISEEDLN of human c-myc protein located at the C-terminal end of the scFv fragment. To generate Syk mutants, targeted mutagenesis was used on GST:Syk 6-242 protein and the binding of G4G11 with the mutants was assessed in the presence of 5 μM of C-13. • 3) Cells, culture conditions and functional tests. […] The level of β-hexosaminidase released was measured 10 min later and the TNF-α titration was performed by means of a cytotoxicity test on L929 cells as described previously^10, 3 hours after stimulation. […]

Syk = target: T1, Syk (Rattus norvegicus, UniProt Q64725); assay: Phosphorylation and FcεRI-induced kinase activity of Syk in RBL-2H3 cells; assay type: cell-based
T1 construct: endogenous in cells; host or cells: RBL-2H3
T1 sequence (Q64725 whole entry): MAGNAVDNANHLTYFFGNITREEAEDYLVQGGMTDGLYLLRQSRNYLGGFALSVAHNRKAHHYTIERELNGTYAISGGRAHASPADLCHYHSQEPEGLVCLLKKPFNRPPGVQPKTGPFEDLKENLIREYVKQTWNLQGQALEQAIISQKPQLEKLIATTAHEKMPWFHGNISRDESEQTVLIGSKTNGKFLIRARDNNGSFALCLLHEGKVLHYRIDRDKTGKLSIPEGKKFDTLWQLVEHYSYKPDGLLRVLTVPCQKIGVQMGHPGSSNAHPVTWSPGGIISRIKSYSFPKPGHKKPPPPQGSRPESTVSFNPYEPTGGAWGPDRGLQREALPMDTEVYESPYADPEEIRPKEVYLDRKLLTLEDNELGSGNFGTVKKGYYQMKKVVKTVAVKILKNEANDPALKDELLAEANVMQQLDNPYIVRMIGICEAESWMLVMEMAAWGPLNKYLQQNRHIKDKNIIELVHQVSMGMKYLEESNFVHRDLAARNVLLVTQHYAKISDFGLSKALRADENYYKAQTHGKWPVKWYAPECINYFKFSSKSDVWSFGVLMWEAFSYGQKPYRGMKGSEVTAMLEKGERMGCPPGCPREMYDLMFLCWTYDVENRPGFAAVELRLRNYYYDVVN

COC(=O)c1ccccc1-c1ccc(/C=C2/SC(=S)N(Cc3ccccc3)C2=O)o1 [Molecule C-13, methyl 2-{5-[(3-benzyl-4-oxo-2-thioxo-1,3-thiazolidin-5-ylidene)methyl]-2-furyl}benzoate]
BCR-dependent B lymphocyte in vitro proliferation [1]: inhibited in a dose-dependent fashion
phosphorylation and FcεRI-induced kinase activity of Syk (Syk): did not affect
